Assay results reported in ChEMBL document CHEMBL5649166, “RIP3 induces apoptosis independent of pronecrotic kinase activity” (Mol Cell, 2014).

Columns and labels:
[1] = target: Dual specificity tyrosine-phosphorylation-regulated kinase 1B (Homo sapiens) (UniProt Q9Y463); assay: Inhibition of human DYRK1B using RRRFRPASPLRGPPK as substrate at 1 uM in presence of 32P-ATP by Hotspot assay relative to control; values are per cent of control
[2] = target: T1, G protein-coupled receptor kinase 3 (Homo sapiens) (UniProt P35626); assay: Inhibition of human GRK3 using casein as substrate at 1 uM in presence of 32P-ATP by Hotspot assay relative to control; values are per cent of control
T1 sequence (whole entry): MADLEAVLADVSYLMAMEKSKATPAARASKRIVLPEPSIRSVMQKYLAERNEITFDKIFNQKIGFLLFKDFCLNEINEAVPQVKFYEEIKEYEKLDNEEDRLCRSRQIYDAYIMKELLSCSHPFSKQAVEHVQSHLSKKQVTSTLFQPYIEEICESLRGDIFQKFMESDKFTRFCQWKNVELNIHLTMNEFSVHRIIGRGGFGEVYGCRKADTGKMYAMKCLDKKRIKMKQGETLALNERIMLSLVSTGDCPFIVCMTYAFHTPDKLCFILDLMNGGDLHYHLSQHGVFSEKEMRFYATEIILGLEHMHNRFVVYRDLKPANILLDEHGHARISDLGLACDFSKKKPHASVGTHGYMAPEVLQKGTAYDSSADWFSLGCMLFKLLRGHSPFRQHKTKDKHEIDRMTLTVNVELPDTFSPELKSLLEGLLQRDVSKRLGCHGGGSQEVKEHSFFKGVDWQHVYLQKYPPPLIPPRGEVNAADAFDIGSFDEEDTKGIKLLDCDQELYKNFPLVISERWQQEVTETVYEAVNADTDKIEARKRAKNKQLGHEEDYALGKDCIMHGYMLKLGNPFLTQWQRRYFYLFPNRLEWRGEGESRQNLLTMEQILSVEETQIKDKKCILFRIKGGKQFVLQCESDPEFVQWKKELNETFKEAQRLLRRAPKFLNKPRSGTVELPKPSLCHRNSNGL

[3] = target: Serine/threonine-protein kinase PLK2 (Homo sapiens) (UniProt Q9NYY3); assay: Inhibition of human PLK2 using casein as substrate at 1 uM in presence of 32P-ATP by Hotspot assay relative to control; values are per cent of control
[4] = target: Protein-tyrosine kinase 6 (Homo sapiens) (UniProt Q13882); assay: Inhibition of human BRK using poly[Glu:Tyr] (4:1) as substrate at 1 uM in presence of 32P-ATP by Hotspot assay relative to control; values are per cent of control
[5] = target: Serine/threonine-protein kinase 26 (Homo sapiens) (UniProt Q9P289); assay: Inhibition of human MST4 using myelin basic protein as substrate at 1 uM in presence of 32P-ATP by Hotspot assay relative to control; values are per cent of control
[6] = target: Serine/threonine-protein kinase Chk2 (Homo sapiens) (UniProt O96017); assay: Inhibition of human CHK2 using KKKVSRSGLYRSPSMPENLNRPR as substrate at 1 uM in presence of 32P-ATP by Hotspot assay relative to control; values are per cent of control
[7] = target: T2, Serine/threonine-protein kinase TAO3 (Homo sapiens) (UniProt Q9H2K8); assay: Inhibition of human TAOK3/JIK using myelin basic protein as substrate at 1 uM in presence of 32P-ATP by Hotspot assay relative to control; values are per cent of control
T2 sequence (whole entry): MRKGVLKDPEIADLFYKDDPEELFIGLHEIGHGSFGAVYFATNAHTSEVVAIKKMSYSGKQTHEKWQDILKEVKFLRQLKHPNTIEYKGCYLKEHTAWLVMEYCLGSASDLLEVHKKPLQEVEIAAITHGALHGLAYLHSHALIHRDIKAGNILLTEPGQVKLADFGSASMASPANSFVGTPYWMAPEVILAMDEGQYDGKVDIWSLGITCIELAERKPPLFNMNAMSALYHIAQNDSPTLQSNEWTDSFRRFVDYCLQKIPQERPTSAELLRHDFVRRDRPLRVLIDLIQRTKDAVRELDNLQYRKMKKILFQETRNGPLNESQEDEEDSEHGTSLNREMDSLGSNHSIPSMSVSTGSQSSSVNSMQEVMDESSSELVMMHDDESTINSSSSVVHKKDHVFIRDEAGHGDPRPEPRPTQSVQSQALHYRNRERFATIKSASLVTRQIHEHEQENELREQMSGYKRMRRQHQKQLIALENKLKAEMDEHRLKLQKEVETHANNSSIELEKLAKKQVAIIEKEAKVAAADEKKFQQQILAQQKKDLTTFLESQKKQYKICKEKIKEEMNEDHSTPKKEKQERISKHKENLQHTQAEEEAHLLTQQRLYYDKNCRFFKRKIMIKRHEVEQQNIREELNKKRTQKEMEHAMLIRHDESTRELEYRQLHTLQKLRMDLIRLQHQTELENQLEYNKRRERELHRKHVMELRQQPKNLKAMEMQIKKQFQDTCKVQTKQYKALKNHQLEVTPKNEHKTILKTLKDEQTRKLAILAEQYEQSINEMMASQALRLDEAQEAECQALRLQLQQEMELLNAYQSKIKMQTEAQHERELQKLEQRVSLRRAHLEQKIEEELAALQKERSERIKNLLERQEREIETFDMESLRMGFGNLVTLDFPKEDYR

[8] = target: Serine/threonine-protein kinase MARK1 (Homo sapiens) (UniProt Q9P0L2); assay: Inhibition of human MARK1 using KKKVSRSGLYRSPSMPENLNRPR as substrate at 1 uM in presence of 32P-ATP by Hotspot assay relative to control; values are per cent of control
[9] = target: STE20/SPS1-related proline-alanine-rich protein kinase (Homo sapiens) (UniProt Q9UEW8); assay: Residual activity of human STK39/STLK3 using myelin basic protein as substrate at 1 uM in presence of 32P-ATP by Hotspot assay relative to control
[10] = target: Serine/threonine-protein kinase 16 (Homo sapiens) (UniProt O75716); assay: Inhibition of human STK16 using myelin basic protein as substrate at 1 uM in presence of 32P-ATP by Hotspot assay relative to control; values are per cent of control
Serine/threonine-protein kinase 16 (Homo sapiens), sequence (O75716 whole entry): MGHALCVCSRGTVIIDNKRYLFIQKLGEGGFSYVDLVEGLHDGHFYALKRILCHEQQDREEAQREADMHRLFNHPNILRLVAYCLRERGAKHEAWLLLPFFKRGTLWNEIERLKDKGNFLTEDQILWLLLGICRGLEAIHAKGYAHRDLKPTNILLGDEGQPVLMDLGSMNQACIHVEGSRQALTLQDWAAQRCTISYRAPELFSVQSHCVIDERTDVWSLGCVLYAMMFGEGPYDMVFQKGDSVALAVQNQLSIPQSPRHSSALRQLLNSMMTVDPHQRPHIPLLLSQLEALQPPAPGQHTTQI

Protein-tyrosine kinase 6 (Homo sapiens), sequence (Q13882 whole entry, looked up): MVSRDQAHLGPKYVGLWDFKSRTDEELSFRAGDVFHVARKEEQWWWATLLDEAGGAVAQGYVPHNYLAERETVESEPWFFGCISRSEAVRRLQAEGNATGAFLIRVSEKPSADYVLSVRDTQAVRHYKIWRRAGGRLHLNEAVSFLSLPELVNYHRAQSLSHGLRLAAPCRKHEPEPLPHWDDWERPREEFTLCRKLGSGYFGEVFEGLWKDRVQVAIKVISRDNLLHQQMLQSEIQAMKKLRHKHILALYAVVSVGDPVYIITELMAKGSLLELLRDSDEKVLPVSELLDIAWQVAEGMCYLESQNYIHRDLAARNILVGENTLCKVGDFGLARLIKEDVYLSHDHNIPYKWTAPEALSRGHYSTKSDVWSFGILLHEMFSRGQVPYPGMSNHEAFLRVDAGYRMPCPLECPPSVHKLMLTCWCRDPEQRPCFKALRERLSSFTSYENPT
Serine/threonine-protein kinase MARK1 (Homo sapiens), sequence (Q9P0L2 whole entry, looked up): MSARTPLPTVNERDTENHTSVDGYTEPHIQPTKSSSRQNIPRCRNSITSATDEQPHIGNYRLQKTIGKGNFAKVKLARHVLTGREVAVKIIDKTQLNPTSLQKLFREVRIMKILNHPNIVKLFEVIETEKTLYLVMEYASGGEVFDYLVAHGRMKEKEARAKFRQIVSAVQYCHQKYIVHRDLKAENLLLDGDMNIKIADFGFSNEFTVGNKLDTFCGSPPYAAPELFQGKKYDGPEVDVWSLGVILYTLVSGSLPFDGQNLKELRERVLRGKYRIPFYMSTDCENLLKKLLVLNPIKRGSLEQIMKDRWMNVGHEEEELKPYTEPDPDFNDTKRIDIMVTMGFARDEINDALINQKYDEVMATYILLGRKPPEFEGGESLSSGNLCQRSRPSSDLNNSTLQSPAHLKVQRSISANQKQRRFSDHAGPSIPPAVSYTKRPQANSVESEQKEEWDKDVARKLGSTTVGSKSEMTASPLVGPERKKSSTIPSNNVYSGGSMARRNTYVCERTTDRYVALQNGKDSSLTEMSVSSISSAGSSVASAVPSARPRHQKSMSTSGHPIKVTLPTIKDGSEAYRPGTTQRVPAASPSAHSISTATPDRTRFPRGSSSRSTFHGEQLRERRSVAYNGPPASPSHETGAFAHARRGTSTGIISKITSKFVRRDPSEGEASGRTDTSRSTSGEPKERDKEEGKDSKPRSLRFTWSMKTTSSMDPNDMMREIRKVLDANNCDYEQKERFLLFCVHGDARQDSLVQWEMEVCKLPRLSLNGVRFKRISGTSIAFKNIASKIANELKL
Dual specificity tyrosine-phosphorylation-regulated kinase 1B (Homo sapiens), sequence (Q9Y463 whole entry, looked up): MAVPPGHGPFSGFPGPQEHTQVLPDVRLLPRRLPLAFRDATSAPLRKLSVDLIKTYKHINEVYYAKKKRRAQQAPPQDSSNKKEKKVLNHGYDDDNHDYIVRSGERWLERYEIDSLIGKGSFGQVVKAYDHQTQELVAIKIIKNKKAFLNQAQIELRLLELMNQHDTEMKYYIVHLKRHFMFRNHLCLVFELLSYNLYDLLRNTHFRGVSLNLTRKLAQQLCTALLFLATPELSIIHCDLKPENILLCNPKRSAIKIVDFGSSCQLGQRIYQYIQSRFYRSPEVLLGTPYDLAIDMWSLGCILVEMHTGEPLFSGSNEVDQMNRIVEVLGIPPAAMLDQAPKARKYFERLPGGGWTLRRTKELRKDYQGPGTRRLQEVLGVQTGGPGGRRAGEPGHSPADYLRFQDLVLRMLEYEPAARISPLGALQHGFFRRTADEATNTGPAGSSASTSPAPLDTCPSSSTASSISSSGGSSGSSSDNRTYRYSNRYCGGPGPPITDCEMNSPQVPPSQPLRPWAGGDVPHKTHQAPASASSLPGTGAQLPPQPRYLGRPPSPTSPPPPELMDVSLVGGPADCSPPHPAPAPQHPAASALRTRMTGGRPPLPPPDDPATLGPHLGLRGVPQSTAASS
Serine/threonine-protein kinase PLK2 (Homo sapiens), sequence (Q9NYY3 whole entry, looked up): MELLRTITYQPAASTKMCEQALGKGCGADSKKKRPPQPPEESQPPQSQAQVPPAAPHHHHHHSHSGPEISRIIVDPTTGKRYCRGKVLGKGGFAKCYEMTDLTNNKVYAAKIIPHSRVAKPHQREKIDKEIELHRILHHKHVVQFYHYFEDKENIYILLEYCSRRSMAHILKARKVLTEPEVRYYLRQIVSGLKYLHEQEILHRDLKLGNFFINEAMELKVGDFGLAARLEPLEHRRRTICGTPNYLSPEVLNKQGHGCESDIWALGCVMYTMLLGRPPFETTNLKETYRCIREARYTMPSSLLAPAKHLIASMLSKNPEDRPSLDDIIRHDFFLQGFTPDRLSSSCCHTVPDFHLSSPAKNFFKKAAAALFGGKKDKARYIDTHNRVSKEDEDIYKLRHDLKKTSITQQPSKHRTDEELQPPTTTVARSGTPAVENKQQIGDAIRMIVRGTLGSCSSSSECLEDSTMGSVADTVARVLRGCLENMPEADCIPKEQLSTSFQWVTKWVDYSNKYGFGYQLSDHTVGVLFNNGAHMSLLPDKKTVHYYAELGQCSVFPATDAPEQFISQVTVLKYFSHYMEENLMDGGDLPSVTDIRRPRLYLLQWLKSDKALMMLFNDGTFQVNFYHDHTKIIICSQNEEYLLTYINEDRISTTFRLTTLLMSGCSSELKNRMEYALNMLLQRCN
Serine/threonine-protein kinase 26 (Homo sapiens), sequence (Q9P289 2-416 limits assumed): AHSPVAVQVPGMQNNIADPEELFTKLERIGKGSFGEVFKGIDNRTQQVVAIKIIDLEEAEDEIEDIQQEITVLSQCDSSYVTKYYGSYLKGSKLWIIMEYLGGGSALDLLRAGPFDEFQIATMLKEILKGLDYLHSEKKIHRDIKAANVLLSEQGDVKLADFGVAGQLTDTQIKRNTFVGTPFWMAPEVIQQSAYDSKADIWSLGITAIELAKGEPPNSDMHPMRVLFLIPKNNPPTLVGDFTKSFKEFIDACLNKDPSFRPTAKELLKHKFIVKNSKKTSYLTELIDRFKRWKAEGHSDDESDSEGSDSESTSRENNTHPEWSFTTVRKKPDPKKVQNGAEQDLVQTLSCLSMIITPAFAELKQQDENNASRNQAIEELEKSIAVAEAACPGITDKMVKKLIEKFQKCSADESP
Serine/threonine-protein kinase Chk2 (Homo sapiens), sequence (O96017 whole entry): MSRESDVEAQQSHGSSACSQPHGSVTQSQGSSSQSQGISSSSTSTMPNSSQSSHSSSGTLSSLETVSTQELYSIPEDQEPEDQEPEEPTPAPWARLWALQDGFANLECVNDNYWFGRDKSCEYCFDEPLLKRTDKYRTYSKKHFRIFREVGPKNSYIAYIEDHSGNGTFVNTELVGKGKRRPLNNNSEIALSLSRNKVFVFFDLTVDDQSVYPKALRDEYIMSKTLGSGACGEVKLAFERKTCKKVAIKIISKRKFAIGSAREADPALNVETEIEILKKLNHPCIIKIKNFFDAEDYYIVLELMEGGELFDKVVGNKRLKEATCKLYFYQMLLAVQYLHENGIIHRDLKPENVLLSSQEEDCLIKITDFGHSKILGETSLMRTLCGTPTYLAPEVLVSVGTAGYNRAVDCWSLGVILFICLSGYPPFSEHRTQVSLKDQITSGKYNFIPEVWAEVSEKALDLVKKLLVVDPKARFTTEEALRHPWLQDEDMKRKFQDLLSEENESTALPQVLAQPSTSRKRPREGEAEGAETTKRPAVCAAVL

Row | Compound | residual activity [1] [%] | residual activity [2] [%] | residual activity [3] [%] | residual activity [4] [%] | residual activity [5] [%] | residual activity [6] [%] | residual activity [7] [%] | residual activity [8] [%] | residual activity [9] [%] | residual activity [10] [%]
1 | CC(C)S(=O)(=O)c1ccc2nccc(Nc3ccc4scnc4c3)c2c1 | 100 | 99.5 | 94.7 | 10.8 | 95.9 | 89.6 | 96.4 | 96.3 | 94.9 | 98.8
2 | Cc1cc(-c2cnc(N)c3c(-c4ccc5scnc5c4)csc23)n(C)n1 | 99.5 | 80.9 | 106 | 8.67 | 93.5 | 97.3 | 99.4 | 103 | 108 | 97.6
3 | CNC(=O)c1ccc2c(c1)ncn2-c1ccc(CC(=O)OC(C)(C)C)cc1 | 98.4 | 108 | 99.1 | 29.9 | 97.5 | 94 | 95.2 | 96.2 | 103 | 85.4
